Results on one compound are retold here after patent US7838695B2, “Neuroactive substance and uses of one such substance” (Universite de Nantes, priority 2003, dated 2010).

Experiment [1] relates to Phormia terrae novae larvae. In words: Neuroactivity test by injection in Diptera larvae. The experiment is classed as in vivo. The protocol:
The neuroactivity of the substance according to formula (I) was then tested by injecting in Diptera larvae. Within this scope, the inventors used Phormia terrae novae species Cyloraphe larvae at larval stage III, just before the imago stage enabling metamorphosis to a pupa or nymph. […] The product is injected using a precision micro-syringe fitted with a bevelled hypodermic needle. The needle is inserted into the last abdominal segment of the animal on the dorsal side. The injection is deemed successful if the larva is still mobile at the tip of the needle. In this type of test, contraction or relaxation for at least 5 seconds is defined as a positive response, but the intensity and duration are dose-dependent while the absence of any symptom for 10 min represents a negative response. Substance (II) was tested by injecting a single 350 μg dose of product per larva (mean larva weight 70 mg), by injecting 7 A1 of a 50 mg/ml solution of the product in the 85-15 v/v water:DMSO mixture. This concentration was then diluted by half until no larval activity was detected.

The subject of experiment [2] is axonal cockroach sodium and potassium channels. Nature of the experiment: Isolated giant axon under imposed potential and imposed current. The class given is cell-based, Periplaneta americana. The protocol:
Firstly, the neuronal sodium and potassium channels were studied. These channels are involved in action potential generation. This study was conducted on cockroach (Periplaneta americana) giant axons. The giant axon of these cockroaches was isolated in ventral abdominal nerve chain connective tissue. During the experiment, the axon is immersed in physiological fluid. The experiment is performed under imposed potential and imposed current in the absence and presence of the substance according to formula (II).

For experiment [3], the system named is cockroach DUM neurons. Nature of the experiment: Spontaneous pacemaker electrical activity of DUM neurons (whole cell patch-clamp). The experiment is classed as cell-based, Periplaneta americana. The protocol:
(§1) A second experiment was conducted on dorsal unpaired median neurons (DUM neurons) from the central nervous system of cockroaches (Periplaneta americana). In particular, these neurons secrete a biogenous amine, octopamine, a neuromediator wherein the chemical structure is similar to […] in vertebrates. They represent a good study model as they display electrophysiological properties similar to those of dopaminergic neurons in vertebrates. These DUM neurons are isolated from the medio-dorsal line of the last terminal abdominal ganglion of the nerve chain of adult male cockroaches, by means of enzyme digestion and mechanical dissociation, according to the technique described by […] et al (J. Exp. Biol., 1989, 144; 535-549). The neurons isolated in this way are kept in culture at 29° C. for 24 hrs before testing. The whole cell configuration patch-clamp technique is used to measure the electrical activity and the calcium currents (imposed potential and/or current conditions) according to the model described by Grolleau and […]. Neurophysiol. 1995, 73; 160-171).

For experiment [4], the system named is cockroach DUM neurons. Nature of the experiment: Electrical activity of DUM neurons activated by injecting depolarising current. The class given is cell-based, Periplaneta americana. As to the method: as §1, with “160-171). Experiments were also conducted on an electrical activity activated by injecting a level of depolarising current controlled in amplitude and duration (FIG. 6). The results obtained under these conditions are in agreement with the experiments conducted on spontaneous activity. […]” for “160-171).”

Experiment [5] deals with high voltage activated calcium channels (HVA). In words: HVA calcium current in DUM neurons (patch-clamp). The class given is cell-based, Periplaneta americana. On the technique in general: Patch clamp records ionic current or voltage across a cell membrane.
Experiment [6] deals with low voltage activated calcium channels (LVA). Nature of the experiment: Overall LVA calcium current in DUM neurons (patch-clamp). The class given is cell-based, Periplaneta americana. The following applies: +50 mV depolarising pulse from −100 mV reference potential.
Experiment [7] concerns maintained LVA calcium channels (mLVA). In words: mLVA calcium current in DUM neurons in the presence of nickel chloride (patch-clamp). The experiment is classed as cell-based, Periplaneta americana. The following applies: in the presence of 100 μm nickel chloride.
For experiment [8], the system named is transient LVA calcium channels (tLVA). In words: tLVA calcium current in DUM neurons (overall LVA minus mLVA). The experiment is classed as cell-based, Periplaneta americana.

“Also recorded” adds a separate entry of the source.

Regarding `CC(=O)O[C@@H]1CC[C@@]23O[C@@H]2[C@H](O)C[C@@H](C)[C@]3(C)[C@@H]1C(C)=O` [substance according to formula (II), 6S-acetyl-4R,5R-dimethyl-1R(10S)-epoxy-2R-hydroxy-7R-acetoxydecahydronaphthalene], the MAC result in experiment [1] (calculated with molecular weight 296 g per mole) is listed as “approximately 1 mM/mg of larvae”. Further, the “minimum active concentration on diptera larvae” value in experiment [1] (injection into larvae, halving dilutions until no larval activity) is 3.1 μg per μl and per 10 mg of larvae. Also, the “activity on axonal sodium and potassium channels (change on the action potential)” value in experiment [2] was “no activity”. Moreover, in the experiment with cockroach DUM neurons [3] (4-AP 2 mM), the action potential amplitude result was “remains unchanged”, the post-hyperpolarisation phase result was “increased” and the pre-depolarisation slope result is “higher”. For the same compound, in the experiment with cockroach DUM neurons [3] (100 μm substance, in the presence of 4-AP 2 mM), the “action potential frequency increased by a factor” value was 2.1. For the same compound, in the experiment on cockroach DUM neurons [4], the “action potential amplitude or duration” value is on record as “No change” and the discharge frequency entry is listed as “increase in the discharge frequency”. Besides, the “reduction of HVA calcium current amplitude” value in experiment [5] (+90 mV depolarising pulse from −100 mV reference potential, n=7) is 9%. Further, in experiment [5] (in the presence of 100 μm nickel chloride), the “amplitude of the HVA current” value was “neither the amplitude of the mLVA current (FIGS. 10 and 11) or that of HVA are modified”. Moreover, the “maintained component measured at the end of the depolarising pulse” value in experiment [6] is listed as “not affected”. Also, the “increase of amplitude of the overall LVA calcium current” value in experiment [6] (n=7) was 81%. The “amplitude of the mLVA current” value in experiment [7] is “neither the amplitude of the mLVA current (FIGS. 10 and 11) or that of HVA are modified”. Moreover, in experiment [8], the “action on tLVA calcium channel” value was “specific activator; also recorded: specific action; also recorded: potentiating”.
